Test results: patent US10647677B2, “Analogues of hydroxychloroquine (HCQ) without retinal toxicity” (Inoviem Scientific, priority 2015, dated 2020)
Where two headings read alike, the source gives them in different places.

Assays:
[1] = target: T1, αB-crystalline (αB-C) (Homo sapiens, UniProt P02511); assay: Surface plasmon resonance (Biacore 3000) affinity on αB-crystalline; format: binding; settings: SPR at 25° C.; for Kd: read-out: Kd (M) on crystallin
T1 construct: purchased
T1 sequence (P02511 1-175): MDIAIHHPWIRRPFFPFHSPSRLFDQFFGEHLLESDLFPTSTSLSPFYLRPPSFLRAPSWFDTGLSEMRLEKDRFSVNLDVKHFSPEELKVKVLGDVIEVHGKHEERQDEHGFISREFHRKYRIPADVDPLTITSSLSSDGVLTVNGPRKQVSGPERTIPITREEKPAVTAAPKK
Protocol: (§1) Using the surface plasmon resonance technology (Biacore 3000), the interaction constants between HCQ analogues (HCQa) and myeloperoxidase (MPO) targets and αB-crystalline (αB-C) were measured at 25° C. according to 12 different series of experiments. First, HCQ analogues at five different concentrations (10^−6 to 10^−8 M) were injected at a rate of 10^−6 L/min for 250 s on the MPO and αB-C targets as well as on the ERK1 and ERK2 controls, followed by a dissociation phase of 150 s.
(§2) The kinetic parameters were measured using the BIAevaluation 4.1 software. The set of resonance unit values obtained with the controls were subtracted from those obtained with MPO and αB-C to compensate for non-specific bonds.
(§3) The differences in Kd values for the myeloperoxidase (MPO) and αB-crystalline (αB-C) enzymes in Tables 1 and 2 are due to the variability of commercial batches. Nevertheless, the difference between the Kd of the compounds HCQ and CB137 remains identical according to these two tests.
(§4) Analysis of the compounds in the form of sulphate salts according to the method described above: […]

[2] = target: T2, myeloperoxidase (MPO) (Homo sapiens, UniProt P05164); assay: Surface plasmon resonance (Biacore 3000) affinity on MPO; format: binding; settings: SPR at 25° C.
T2 construct: purchased
T2 sequence (P05164 49-745): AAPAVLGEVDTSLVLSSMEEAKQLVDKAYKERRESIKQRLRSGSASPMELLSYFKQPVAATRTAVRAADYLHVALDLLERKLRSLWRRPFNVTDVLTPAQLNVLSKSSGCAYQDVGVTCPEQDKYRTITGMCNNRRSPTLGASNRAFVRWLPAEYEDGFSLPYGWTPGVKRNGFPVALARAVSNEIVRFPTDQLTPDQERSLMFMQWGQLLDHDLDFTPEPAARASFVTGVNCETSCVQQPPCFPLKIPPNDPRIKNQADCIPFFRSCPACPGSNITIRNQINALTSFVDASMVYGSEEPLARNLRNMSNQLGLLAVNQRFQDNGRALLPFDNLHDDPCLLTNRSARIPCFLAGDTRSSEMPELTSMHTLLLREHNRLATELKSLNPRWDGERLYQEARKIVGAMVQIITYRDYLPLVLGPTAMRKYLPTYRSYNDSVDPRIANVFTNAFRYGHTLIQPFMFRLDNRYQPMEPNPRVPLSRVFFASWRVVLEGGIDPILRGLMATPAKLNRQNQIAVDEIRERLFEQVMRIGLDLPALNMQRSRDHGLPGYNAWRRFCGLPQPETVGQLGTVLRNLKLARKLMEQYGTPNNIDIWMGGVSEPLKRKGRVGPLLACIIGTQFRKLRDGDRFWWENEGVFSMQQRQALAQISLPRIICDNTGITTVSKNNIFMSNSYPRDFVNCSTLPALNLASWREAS
Protocol: as §1, §2, §3, §4

[3] = Table 2, compounds in the form of sulphate salts

Kd ([1]; Table 1) [M] | Kd ([2]; Table 1) [nM] | Kd [1, 3] [M] | Kd [2, 3] [nM] | Structure (SMILES) | Kd (M) on crystallin ([1]; Table 1)
2.19e-09 | 711 | – | – | CCN(CCO)CCCC(C)Nc1ccnc2cc(Cl)ccc12 (single isomer, unassigned) [CB133] | –
– | – | 2e-05 | 5000 | CCN(CCO)CCCC(C)Nc1c(C2CC2)cnc2cc(Cl)ccc12 (stereo not drawn) [CB341] | –
– | – | 0.0002 | 4000 | CCN(CCO)CCCC(C)Nc1ccnc2cc(Cl)cc(Cl)c12 (stereo not drawn) [CB300] | –
– | – | – | 9000 | CCN(CCO)CCCC(C)Nc1ccnc2c(Cl)c(Cl)ccc12 (stereo not drawn) [CB317] | –
6.6e-07 | 36 | – | – | CCN(CCO)CCCC(C)Nc1c(C(=O)C2CC2)cnc2cc(Cl)ccc12 (stereo not drawn) [CB103] | –
– | 7.5 | – | – | CCOC(=O)c1cnc2cc(Cl)ccc2c1NC(C)CCCN(CC)CCO (stereo not drawn) [NT36F9] | Kd not measurable because below the detection threshold
3.5e-08 | 71 | – | – | CCN(CCO)CCCC(C)Nc1c(C#N)cnc2cc(Cl)ccc12 (stereo not drawn) [CB029] | –
2.2e-05 | 60 | – | – | CCN(CCO)CCCC(C)Nc1c(C(=O)C(F)(F)F)cnc2cc(Cl)ccc12 (stereo not drawn) [CB114] | –
8.1e-07 | 14 | – | – | CCN(CCO)CCCC(C)Nc1c(C(F)(F)F)cnc2cc(Cl)ccc12 (stereo not drawn) [CB108] | –
– | – | – | – | C#CCOCc1cnc2cc(Cl)ccc2c1NC(C)CCCN(CC)CCO (stereo not drawn) [NT69] | Kd not measurable because below the detection threshold
– | – | 0.0002 | 90 | CCN(CCO)CCC[C@@H](C)Nc1c(Cl)cnc2cc(Cl)ccc12 [CB323 R-enantioer] | –
– | – | 1e-05 | 7000 | CCN(CCO)CCC[C@@H](C)Nc1ccnc2cc(Cl)cc(Cl)c12 [CB321 R-enantiomer] | –

Structure (SMILES) | Kd ([1]; Table 1) [M] | Kd ([2]; Table 1) [nM] | Kd [1, 3] [M] | Kd [2, 3] [nM] | Kd (M) on crystallin ([1]; Table 1)
CCN(CCO)CCCC(C)Nc1c(Cl)cnc2cc(Cl)ccc12 (stereo not drawn) [CB072] | 1.6e-07 | 1.1 | – | – | –
